Where two headings read alike, the source gives them in different places.
Tests used:
[1] = tested on: pol η–PCNA holoenzyme; test: TLS time course of pol η on cisPt(GG) template; assay type: biochemical, human; settings: cisPt(GG) template 10 nM, pol η 40 nM; p15 with equimolar PCNA (p15), 10-fold excess PCNA (PCNA), or pol η alone; pH 8, 37°C
Method: (§1) The 24-mer template oligonucleotide containing the cis-PtGG adduct was a kind gift from S.J. Sturla (ETH, Zürich) and was prepared and purified as described previously (Nilforoushan, 2015). All other DNA oligonucleotides, all HPLC purified, were synthesized by Biomers.net (Germany). The 18mer primer oligonucleotide was 5′-labeled with carboxyfluorescin (FAM) group. The labeled primer was mixed to the complementary template oligonucleotide at 1:1 (M/M) ratio in the presence of 150 mM Hepes–KOH pH 7.4, 500 mM KCl, 10 mM MgCl2, 250 mM NH4Ac, heated at 95°C for 5 min and then slowly cooled at room temperature.
pJM879 ([33]), expressing N-terminal His-tagged human pol η, was a kind gift from R. Woodgate (NIH, USA). Human recombinant pol η was expressed and purified with a modified protocol: BL21 DE3 competent E. coli cells were transformed with pJM879. Plates containing […] kanamycin were used to identify kanamycin-resistant colonies that were picked and grown overnight at 37°C. […] Transformed E. coli cells were used to inoculate a 50 ml starter culture. After overnight growth at 37°C, 12 ml of the starter culture were put into 1 l of LB medium (containing […] kanamycin). After 6 h growth at 37°C, cells were harvested by centrifugation and pellet frozen at –80°C. […]

[2] = tested on: pol η–PCNA holoenzyme; test: TLS by pol η on cis-Pt template in the presence of RF-C; assay type: biochemical, human; settings: 50 µM dNTPs, 0.5 mM ATP, 150 nM ScRF-C, 400 nM pol η, 400 nM p15, 50 nM PCNA
Method: Recombinant ScRF-C was obtained as a kind gift from the laboratory of Alessandro Costa (Francis Crick Institute), and was prepared following the procedure described in ([34]).
(§2) All reactions were performed in a 10 μl final volume using the following conditions: 40 mM Tris pH 8, 1 mM dithiotreitol (DTT), 0.25 mg/ml bovine serum albumin (BSA), 10 mM Mg^2+ (unless otherwise stated in the figures or figure legends). Reactions were incubated at 37°C for 15 min, unless otherwise stated. Reaction mixtures were stopped by addition of standard denaturing gel loading buffer (95% formamide, […], xylene cyanol and bromophenol blue), heated at 95°C for 5 min and loaded on a 7-M urea 12% polyacrylamide (PA) gel.
18/24mer primer-template substrate bearing a cis-Pt adduct at the two guanines at positions +1
and +2 of the template strand, in the presence of RF-C and in the absence (lanes 10-13) or in the
Reactant concentrations were: 50
(1 picture or pasted object on this page, not shown here)

[3] = molecular target: DNA; settings: cited from earlier work
Method: (§3) Thus, each dNTP insertion step is carried out by a combination of pol η alone and pol η holoenzyme. However, if ...

[4] = tested on: pol η; test: DNA synthesis by pol η without PCNA, undamaged control template; assay type: biochemical, human; settings: pol η 70 nM, p15 400 nM, no PCNA, control template 10 nM
Method: pJM879 ([33]), expressing N-terminal His-tagged human pol η, was a kind gift from R. Woodgate (NIH, USA). Human recombinant pol η was expressed and purified with a modified protocol: BL21 DE3 competent E. coli cells were transformed with pJM879. Plates containing […] kanamycin were used to identify kanamycin-resistant colonies that were picked and grown overnight at 37°C. DNA purified from bacterial cultures using NucleoSpin® Plasmid (NoLid) kit ([…]-NAGEL, Düren, Germany) was digested to confirm the presence of the gene expressing pol η. Transformed E. coli cells were used to inoculate a 50 ml starter culture. After overnight growth at 37°C, 12 ml of the starter culture were put into 1 l of LB medium (containing […] kanamycin). After 6 h growth at 37°C, cells were harvested by centrifugation and pellet frozen at –80°C. […]

[5] = tested on: pol η–PCNA holoenzyme; test: DNA synthesis by pol η on undamaged template; assay type: biochemical, human
Method: as §1
pJM879 ([33]), expressing N-terminal His-tagged human pol η, was a kind gift from R. Woodgate (NIH, USA). Human recombinant pol η was expressed and purified with a modified protocol: BL21 DE3 competent E. coli cells were transformed with pJM879. Plates containing […] kanamycin were used to identify kanamycin-resistant colonies that were picked and grown overnight at 37°C. […] Transformed E. coli cells were used to inoculate a 50 ml starter culture. After overnight growth at 37°C, 12 ml of the starter culture were put into 1 l of LB medium (containing […] kanamycin). After 6 h growth at 37°C, cells were harvested by centrifugation and pellet frozen at –80°C. The pellet was resuspended in 40ml of lysis buffer (50mM Tris–HCl pH 7.5, 0.3 M NaCl, 20 mM imidazole, 10% glycerol, 10 mM b-mercaptoethanol [BME], 1× lysozime (Eurobio, Courtaboeuf, France), 1× ethylenediaminetetraacetic acid [EDTA]-free protease inhibitor ([…]™ Protease Inhibitor Cocktail Tablets, Sigma-Aldrich), 1 mM phenylmethane sulfonyl fluoride [PMSF] and lysed through sonication. After ultracentrifugation at 98 000g at 4°C for 1.5 h, the supernatant was loaded onto a 1-ml Ni-NTA column (HisTrap™ HP, GE Healthcare). Column washing was performed with 3 ml of W1 buffer ([…] pH 7.5, 1 M NaCl, 20 mM imidazole, 10% glycerol, 10 mM BME) followed by 3 ml of W2 buffer (10 mM Na-phosphate pH 7.7, 0.3 M NaCl, 20 mM imidazole, 10% glycerol, 10 mM BME). Elution of target protein was obtained using buffer H (10 mM Na-phosphate pH 7.7, 0.3 M NaCl, 200 mM imidazole, 10% glycerol, 10 mM BME). The pol η positive fractions (0.5 ml each) were pooled and overnight dialyzed with buffer M (20 mM Na-phosphate pH 7.3, 0.1 M NaCl, 10% glycerol, 10 mM BME), in dialysis cassette (Slide-A-Lyzer™ Dialysis Cassettes, 3.5K MWCO, Thermo Scientific). Pool was then loaded onto a 1-ml cation exchanger column (HiTrap SP, Pharmacia Biotech). Buffer N (20 mM Na-phosphate pH 7.3, 0.5 M NaCl, 10% glycerol, 10 mM BME) was used to elute pol η with a linear gradient. The pol ηpositive fractions (0.5 ml each) were aliquoted and stored at –80°C in 20% final glycerol.
as §2
Figure 4. […] Reactants at the indicated concentrations were incubated at 37°C for 30 s and the reaction was stopped by addition of standard denaturing gel loading buffer.

[6] = molecular target: PCNA (Homo sapiens) (UniProt P12004); test: ITC; settings: cited from earlier work
[7] = molecular target: PCNA (Homo sapiens) (UniProt P12004); test: SPR; settings: cited from earlier work
[8] = molecular target: PCNA; settings: read-out: Kd pol η–PCNA (SPR); surface plasmon resonance at 25°C; cited from earlier work
Method: as §3

UniProt P12004, sequence (P12004 whole entry): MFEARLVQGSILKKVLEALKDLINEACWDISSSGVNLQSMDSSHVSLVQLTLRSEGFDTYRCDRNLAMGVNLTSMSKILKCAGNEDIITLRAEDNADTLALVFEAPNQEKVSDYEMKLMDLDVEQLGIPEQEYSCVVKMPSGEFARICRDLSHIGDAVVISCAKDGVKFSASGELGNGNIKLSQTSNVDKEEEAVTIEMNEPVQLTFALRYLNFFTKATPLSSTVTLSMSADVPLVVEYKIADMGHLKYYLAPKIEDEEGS

With “p15: PCNA–associated factor, oncogenic 11 kDa intrinsically disordered protein” the “effect on lesion bypass / nucleotide incorporation” value [1] was “reduced nucleotide incorporation at +2 and +3 positions”, the “effect on TLS in the presence of RF-C” value ([2]; 40 nM cis-Pt 18/24mer) was “delays TLS by pol η–PCNA across a cis-Pt lesion even in the presence of RF-C” and the “accumulated products in the presence of RF-C” value ([2]; p15 in combination with PCNA) was “accumulation of +1 and +2 products”. The Kd ([3]; read-out: affinity of p15 for DNA) was 5000 nM, the “effect of p15 alone on pol η activity” value [4] was “does not affect the activity of the polymerase” and the “effect on nucleotide incorporation at initial time point” value ([5]; undamaged template 10 nM, with PCNA and p15 equimolar, lane 2, 37°C, pH 8) was “reduced nucleotide incorporation at position +2”. For the same molecule, the “effect on synthesis of full-length product” value ([5]; undamaged template 10 nM, with PCNA and p15 equimolar, lanes 3–5, 37°C, pH 8) was “slowed down the synthesis of the full-length product”, the “comparison of pol η inhibition by p15 and p15^41–72 in conjunction with PCNA” value ([5]; undamaged template, 37°C for 30 s) was “able to reduce pol η synthesis at comparable levels” and the “effect on DNA synthesis in combination with PCNA” value ([5]; undamaged template, 37°C for 30 s, with respect to pol η and PCNA alone, synthesis stopped at +1 and +2) was “reduction of DNA synthesis”.

In the case of p15PAF (from UniProt Q15004), the Kd [6] is given as 1100 nM.

For pol η (from UniProt Q9Y253), the Kd [7] is given as 400 nM.

B1: pol η: human recombinant translesion synthesis polymerase η, N-terminal His-tagged (protein, UniProt Q9Y253 1-713, looked up)
DNA polymerase eta: MATGQDRVVALVDMDCFFVQVEQRQNPHLRNKPCAVVQYKSWKGGGIIAVSYEARAFGVTRSMWADDAKKLCPDLLLAQVRESRGKANLTKYREASVEVMEIMSRFAVIERASIDEAYVDLTSAVQERLQKLQGQPISADLLPSTYIEGLPQGPTTAEETVQKEGMRKQGLFQWLDSLQIDNLTSPDLQLTVGAVIVEEMRAAIERETGFQCSAGISHNKVLAKLACGLNKPNRQTLVSHGSVPQLFSQMPIRKIRSLGGKLGASVIEILGIEYMGELTQFTESQLQSHFGEKNGSWLYAMCRGIEHDPVKPRQLPKTIGCSKNFPGKTALATREQVQWWLLQLAQELEERLTKDRNDNDRVATQLVVSIRVQGDKRLSSLRRCCALTRYDAHKMSHDAFTVIKNCNTSGIQTEWSPPLTMLFLCATKFSASAPSSSTDITSFLSSDPSSLPKVPVTSSEAKTQGSGPAVTATKKATTSLESFFQKAAERQKVKEASLSSLTAPTQAPMSNSPSKPSLPFQTSQSTGTEPFFKQKSLLLKQKQLNNSSVSSPQQNPWSNCKALPNSLPTEYPGCVPVCEGVSKLEESSKATPAEMDLAHNSQSMHASSASKSVLEVTQKATPNPSLLAAEDQVPCEKCGSLVPVWDMPEHMDYHFALELQKSFLQPHSSNPQVVSAVSHQGKRNPKSPLACTNKRPRPEGMQTLESFFKPLTH
modifications: N-terminal His tag
notes: human recombinant translesion synthesis polymerase η, N-terminal His-tagged
For B1, the “effect on lesion bypass / nucleotide incorporation” value [1] is given as “able to complete the bypass”, the Kd [8] is given as 400 nM and the Kd ([3]; read-out: affinity of pol η for DNA) is given as 30 nM. The processivity ([5]; undamaged template 10 nM, pol η alone or with PCNA, 37°C, pH 8) was “equal processivity”.
